In the assay the test system is IFN-a/Jak1Tyk2. Kind of assay: Co-stimulation assay in lysed whole blood: IFNa (JAK1/TYK2) stimulated STAT1 phosphorylation. It counts as cell-based. The following applies: lysed human whole blood, IFNa 100 ng/mL + GM-CSF 10 ng/mL, pSTAT1 by flow cytometry. Here is the method: Dilute RBC lysis buffer to 1× in distilled water. Add 2 mL blood to 38 mL of 1×RBC-lysis buffer. Incubate for 15 mins at RT, in dark. Spin at 300 g, 5 mins, to collect the pellet. Re-lyse if necessary. Re-suspend pellet in 5 mL of cRPMI.
Aliquot 80 μL of lysed human blood in to wells of 96 deep-well plate. Add 10 μl of (10× conc.) of different concentrations of compounds to all wells except controls (unstained and unstimulated) and mix it with the help of 100 uL multichannel. Add 10 uL of RPMI media in controls. For dilution of compounds and dilution range please refer Appendix. Incubate on water bath or CO2 incubator for 1 hour at 37° C. Add 10 μl of (10× conc.) of cytokine mix (GM-CSF and IFNa) (final conc. 10 ng/mL of GM-CSF and 100 ng/mL of IFNa) to each well except unstimulated and unstained controls and incubate further for 20 minutes on water bath at 37° C.
Add 900 μL of prewarmed 1× Fix/Lyse solution (Appendix) and mix it properly using 1000 μl multichannel, incubate further on water bath at 37° C. for 10 minutes (which includes time of addition). Centrifuge at 800×g for 5 minutes at 40° C.; remove 900 uL of supernatant and add 900 μL of 1×PBS. Centrifuge at 800×g for 5 minutes at 40° C., remove 900 μL of supernatant. Wash one more time with 900 μL of PBS (optional) and resuspend pellets in 100 uL of PBS.
Disrupt the pellet by gentle tapping and resuspend in 1000 μL of BD Phosflow Perm Buffer III and incubate plate on ice for 30 minutes. Centrifuge plate at 800×g for 5 minutes at 40° C. Wash two more times with 1000 μL of BD Pharmingen Stain Buffer.
Disrupt the pellet by gentle tapping. Resuspend pellets in 100 uL of Stain Buffer and add 5 μL of pSTAT5_AF488 Ab and 5 uL of pSTAT1_PE in all wells except unstained control and mix properly using 200 μl multichannel, incubate overnight at […]. Add 900 μL of wash buffer and centrifuge at 1800 rpm for 3 minutes at […]. Wash one more time with 1000 μL of BD Pharmingen Stain Buffer. Finally resuspend the pellet in 300 uL of BD Pharmingen Stain Buffer. Transfer the cells to 96-well v-bottom plate and acquire the cells in Beckman Coulter CytExpert. Acquiring cells in Flow Cytometer: Keep the threshold value to 250 and cell concentration should not exceed 100-500 cells/μL. Acquire at least 5,000-10,000 cells.
Cytokine dilution: 1) GM-CSF Stock at 100 ug/mL. Prepare an intermediate dilution of 1 ug/mL by adding 2 uL of stock into 198 uL of cRPMI. Further dilute to 100 ng/mL by adding 100 uL of the intermediate stock to 900 uL of cRPMI. 2) IFNa Stock at 200 ug/mL. Dilute IFNa stock 1:200 by adding 5 uL of stock into the 1000 uL of 100 ng/mL GM-CSF working stock as above to give a combined working stock of 1000 ng/mL of IFNa and 100 ng/mL GM-CSF (10×). Keep it on ice until used.
Lyse/Fix buffer preparation: Dilute 5× Lyse/Fix buffer to 1× using MQ water and keep at 37° C. until used.
BD Phosflow perm buffer III: Keep on ice/fridge.
On the technique in general: Flow cytometry measures light scatter and fluorescence of single cells or particles in a stream.

Results on 24 compounds are retold here after patent US20220135567A1, “TYK2 PSEUDOKINASE LIGANDS” (Ventyx Biosciences, Inc., priority 2019, published 2022).

Regarding `CNc1cc(Nc2cccc3c2OCCO3)nc2c(C(=O)NC3CC3)cnn12` [Compound 20, N-cyclopropyl-5-((2,3-dihydrobenzo[b][1,4]dioxin-5-yl)amino)-7-(methylamino)pyrazolo[1,5-a]pyrimidine-3-carboxamide], the concentration for half-maximal inhibition (IC50) (20 min) was less than 100 nM. In the case of `[2H]C([2H])([2H])Nc1cc(Nc2cccc3c2OCCO3)nc2c(C(=O)NCC(C)(C)CO)cnn12` [Compound 84, 5-((2,3-dihydrobenzo[b][1,4]dioxin-5-yl)amino)-N-(3-hydroxy-2,2-dimethylpropyl)-7-((methyl-d3)amino)pyrazolo[1,5-a]pyrimidine-3-carboxamide], the IC50 (20 min) is less than 100 nM. As to `CNc1cc(Nc2ccccc2OC)nc2c(C(=O)NC3CC3)cnn12` [Compound 16, N-cyclopropyl-5-((2-methoxyphenyl)amino)-7-(methylamino)pyrazolo[1,5-a]pyrimidine-3-carboxamide], under “20 min”, the IC50 was less than 100 nM. With `CNc1cc(Nc2cccc3c2CCCO3)nc2c(C(=O)NCC(C)(C)CO)cnn12` [Compound 81, 5-(chroman-5-ylamino)-N-(3-hydroxy-2,2-dimethylpropyl)-7-(methylamino)pyrazolo[1,5-a]pyrimidine-3-carboxamide], for the setting “20 min”, the half-inhibitory concentration (IC50) is 100 to 1000 nM. For the compound `[2H]C([2H])([2H])n1cccc(Nc2cc(NC)n3ncc(C(=O)NC4CCC4)c3n2)c1=O` [Compound 93, N-cyclobutyl-5-((1-(methyl-d3)-2-oxo-1,2-dihydropyridin-3-yl)amino)-7-(methylamino)pyrazolo[1,5-a]pyrimidine-3-carboxamide], for the setting “20 min”, the IC50 was less than 100 nM. With `CNc1cc(Nc2c(F)c(F)cc(F)c2F)nc2c(C(=O)NC3CC3)cnn12` [Compound 17, N-cyclopropyl-7-(methylamino)-5-((2,3,5,6-tetrafluorophenyl)amino)pyrazolo[1,5-a]pyrimidine-3-carboxamide], the half-inhibitory concentration (IC50) (20 min) was less than 100 nM.

In the case of `CNc1cc(Nc2cccn(-c3cccc(C)n3)c2=O)nc2c(C(=O)NC3CCC3)cnn12` [Compound 112, N-cyclobutyl-5-((6′-methyl-2-oxo-2H-[1,2′-bipyridin]-3-yl)amino)-7-(methylamino)pyrazolo[1,5-a]pyrimidine-3-carboxamide], the concentration for half-maximal inhibition (IC50) (20 min) was less than 100 nM.

Regarding `CNc1cc(Nc2cccn(-c3cc(C)n(C)n3)c2=O)nc2c(C(=O)NC3CC3)cnn12` [Compound 32, N-cyclopropyl-5-((1-(1,5-dimethyl-1H-pyrazol-3-yl)-2-oxo-1,2-dihydropyridin-3-yl)amino)-7-(methylamino)pyrazolo[1,5-a]pyrimidine-3-carboxamide], for the setting “20 min”, the IC50 was in the range of 100 to 1000 nM.

As for `CNc1cc(Nc2cc(F)cc(F)c2OC)nc2c(C(=O)NC3CC3)cnn12` [Compound 19], the IC50 (20 minutes) was less than 100 nM. `CNc1cc(Nc2cccc3c2OCCO3)nc2c(C(=O)NC3C[C@@H]3F)cnn12` (stereo partly drawn) [Compound 97, 5-((2,3-dihydrobenzo[b][1,4]dioxin-5-yl)amino)-N-((2S)-2-fluorocyclopropyl)-7-(methylamino)pyrazolo[1,5-a]pyrimidine-3-carboxamide]: the half-maximal inhibitory concentration (IC50) (20 min) is less than 100 nM. Take `CNc1cc(Nc2cccn(-c3cccc(C)n3)c2=O)nc2c(C(=O)NC3CC(C#N)C3)cnn12` (stereo not drawn) [Compound 99, N-(3-cyanocyclobutyl)-5-((6′-methyl-2-oxo-2H-[1,2′-bipyridin]-3-yl)amino)-7-(methylamino)pyrazolo[1,5-a]pyrimidine-3-carboxamide]: where the note is “20 min”, the IC50 was 1000 to 10000 nM. In the case of `CNC(=O)c1nscc1Nc1cc(NC)n2ncc(C(=O)NC3CC3)c2n1` [Compound 43, 4-((3-(cyclopropylcarbamoyl)-7-(methylamino)pyrazolo[1,5-a]pyrimidin-5-yl)amino)-N-methylisothiazole-3-carboxamide], the IC50 (20 min) is less than 100 nM. Regarding `CNc1cc(Nc2cccn(-c3ccc(OC)nn3)c2=O)nc2c(C(=O)NCC(C)(C)CO)cnn12` [Compound 66, N-(3-hydroxy-2,2-dimethylpropyl)-5-((1-(6-methoxypyridazin-3-yl)-2-oxo-1,2-dihydropyridin-3-yl)amino)-7-(methylamino)pyrazolo[1,5-a]pyrimidine-3-carboxamide], the IC50 (20 min) is 100 to 1000 nM. Consider `CNc1cc(Nc2cccn(-c3cccc(C)n3)c2=O)nc2c(C(=O)N[C@H]3C[C@H]3F)cnn12` [Compound 111, N-((1S,2R)-2-fluorocyclopropyl)-5-((6′-methyl-2-oxo-2H-[1,2′-bipyridin]-3-yl)amino)-7-(methylamino)pyrazolo[1,5-a]pyrimidine-3-carboxamide], for which the IC50 (20 min) is less than 100 nM.

Turning to `CNc1cc(Nc2cc(C)cnc2OC)nc2c(C(=O)NC3CC3)cnn12` [Compound 56, N-cyclopropyl-5-((2-methoxy-5-methylpyridin-3-yl)amino)-7-(methylamino)pyrazolo[1,5-a]pyrimidine-3-carboxamide], the IC50 (20 min) lay in the range of 100 to 1000 nM. For `CNc1cc(Nc2ccccc2OC(F)(F)F)nc2c(C(=O)NC3CC3)cnn12` [Compound 54, N-cyclopropyl-7-(methylamino)-5-((2-(trifluoromethoxy)phenyl)amino) pyrazolo[1,5-a]pyrimidine-3-carboxamide], the half-inhibitory concentration (IC50) (20 min) was in the range of 100 to 1000 nM. With `CNc1cc(Nc2cccn(-c3ccc(OC)nn3)c2=O)nc2c(C(=O)NCC(C)(C)O)cnn12` [Compound 103, N-(2-hydroxy-2-methylpropyl)-5-((1-(6-methoxypyridazin-3-yl)-2-oxo-1,2-dihydropyridin-3-yl)amino)-7-(methylamino)pyrazolo[1,5-a]pyrimidine-3-carboxamide], the half-maximal inhibitory concentration (IC50) (20 min) was in the range of 1000 to 10000 nM. The same measure, in the same setting: in the case of `CNc1cc(Nc2cc(C(F)(F)F)cnc2OC)nc2c(C(=O)NC3CC3)cnn12` [Compound 62, N-cyclopropyl-5-((2-methoxy-5-(trifluoromethyl)pyridin-3-yl)amino)-7-(methylamino)pyrazolo[1,5-a]pyrimidine-3-carboxamide] it was 1000 to 10000 nM; in that of `CC(C)(CO)CNC(=O)c1cnn2c(N)cc(Nc3cccc4c3OCO4)nc12` [Compound 58, 7-amino-5-(benzo[d][1,3]dioxol-4-ylamino)-N-(3-hydroxy-2,2-dimethylpropyl)pyrazolo[1,5-a]pyrimidine-3-carboxamide], 100 to 1000 nM. For `[2H]C([2H])([2H])n1cccc(Nc2cc(NC)n3ncc(C(=O)N[C@H]4C[C@H]4F)c3n2)c1=O` [Compound 83, N-((1S,2R)-2-fluorocyclopropyl)-5-((1-(methyl-d3)-2-oxo-1,2-dihydropyridin-3-yl)amino)-7-(methylamino)pyrazolo[1,5-a]pyrimidine-3-carboxamide], the concentration for half-maximal inhibition (IC50) (20 min) lay within 100 to 1000 nM. With `CNc1cc(Nc2ccnn2CCO)nc2c(C(=O)NC3CC3)cnn12` [Compound 69, N-cyclopropyl-5-((1-(2-hydroxyethyl)-1H-pyrazol-5-yl)amino)-7-(methylamino)pyrazolo[1,5-a]pyrimidine-3-carboxamide], where the note is “20 min”, the half-maximal inhibitory concentration (IC50) lay within 1000 to 10000 nM.

As to `CNC(=O)c1cnn2c(NC)cc(Nc3cc(F)cc(F)c3OC)nc12` [Compound 71, 5-((3,5-difluoro-2-methoxyphenyl)amino)-N-methyl-7-(methylamino)pyrazolo[1,5-a]pyrimidine-3-carboxamide], the IC50 (20 min) fell in the range of 1000 to 10000 nM. Turning to `CNc1cc(Nc2cccc(N3CCN(C)CC3)c2)nc2c(C(=O)NC3CC3)cnn12` [Compound 51, N-cyclopropyl-7-(methylamino)-5-((3-(4-methylpiperazin-1-yl)phenyl)amino)pyrazolo[1,5-a]pyrimidine-3-carboxamide], the half-maximal inhibitory concentration (IC50) (20 min) was less than 100 nM. Regarding `[2H]C([2H])([2H])Nc1cc(Nc2cc(F)cc3c2OCCO3)nc2c(C(=O)NCC(C)(C)CO)cnn12` [Compound 98, 5-((7-fluoro-2,3-dihydrobenzo[b][1,4]dioxin-5-yl)amino)-N-(3-hydroxy-2,2-dimethylpropyl)-7-((methyl-d3)amino)pyrazolo[1,5-a]pyrimidine-3-carboxamide], the IC50 (20 min) is less than 100 nM.

In general, IC50 refers to the concentration needed to halve the response being measured.
